#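 Test compounds were applied to cells in 96-well plates for 48 hours at 5 doses. Here, GI50 denotes the concentration required for 50% inhibition of growth. TGI is the concentration that stops growth completely.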
# Key:
# Test in all cases: DTP human tumour cell line panel, 48 h
# OVCAR-5 ovarian = tested on: OVCAR-5 ovarian
# HOP-62 NSCLC = tested on: HOP-62 NSCLC
# HL-60(TB) leukemia = tested on: HL-60(TB) leukemia
# OVCAR-8 ovarian = tested on: OVCAR-8 ovarian
# MDA-MB-435 = tested on: MDA-MB-435
# HCT-15 colon = tested on: HCT-15 colon
# SNB-75 CNS = tested on: SNB-75 CNS
# SF-539 CNS = tested on: SF-539 CNS
# DMS 114 small cell lung = tested on: DMS 114 small cell lung
# KM20L2 colon = tested on: KM20L2 colon
SMILES,GI50 (OVCAR-5 ovarian) [µM],TGI (OVCAR-5 ovarian) [µM],GI50 (HOP-62 NSCLC) [µM],TGI (HOP-62 NSCLC) [µM],GI50 (HL-60(TB) leukemia) [µM],TGI (HL-60(TB) leukemia) [µM],GI50 (OVCAR-8 ovarian) [µM],TGI (OVCAR-8 ovarian) [µM],GI50 (MDA-MB-435) [µM],TGI (MDA-MB-435) [µM],GI50 (HCT-15 colon) [µM],TGI (HCT-15 colon) [µM],GI50 (SNB-75 CNS) [µM],TGI (SNB-75 CNS) [µM],GI50 (SF-539 CNS) [µM],TGI (SF-539 CNS) [µM],TGI (DMS 114 small cell lung) [µM],TGI (KM20L2 colon) [µM],GI50 (KM20L2 colon) [µM]
CN(CCO)CC[C@H](CSc1ccccc1)Nc1ccc(S(=O)(=O)NC(=O)c2ccc(N3CCC([C@@H](O)c4ccccc4-c4ccc(Cl)cc4)CC3)cc2)cc1S(=O)(=O)C(F)(F)F,4.6,> 50.4,5.9,35.5,0.886,8.1,11.5,> 100,2.31,6.51,> 100,> 100,3.63,34.2,2.67,8,–,–,–
C[C@@]1(C(=O)O)CCC[C@]2(C)C1CC[C@@]13CC(=O)[C@@](CO)(CC[C@]12O)C3 (stereo not given in full),> 100,> 100,> 100,> 100,> 100,> 100,> 100,> 100,> 100,> 100,> 100,> 100,> 100,> 100,> 100,> 100,–,–,–
CCOc1cccc(/C=N/N=C2\C(=O)Nc3c(Cl)cc(Cl)cc32)c1O,–,> 100,–,> 100,–,> 100,–,> 100,–,> 100,–,> 100,–,89.6,–,> 100,–,–,–
O=C(CCCCCCNC(=O)c1cnc(N(c2ccccc2)c2ccccc2)nc1)NO,3.14,26.1,3.46,28.1,3.53,> 62.3,2.25,> 100,2.04,> 36.8,18.4,> 100,1.5,> 51.9,2.92,52.3,–,–,–
CC1=C(C(=O)Nc2cc(=O)n(C)c(=O)n2C)C(c2ccco2)C(C(=O)Nc2cc(=O)n(C)c(=O)n2C)=C(C)N1,–,> 100,–,> 100,–,> 100,–,> 100,–,–,–,–,–,> 100,–,> 100,> 100,> 100,–
C[C@H](NC(=O)[C@@H](C)N)[C@H](Oc1ccc2c(cnn2-c2ccc(F)cc2)c1)c1ccc2c(c1)OCCO2,2.29,7.11,4.34,20.1,2.28,4.94,3.25,14,1.61,3.24,1.98,4.44,3.15,10.8,1.65,3.54,–,–,–
O=C1C(Cl)=C(Nc2cccc(Cl)c2)C(=O)N1Cc1ccc(Cl)cc1,0.864,15.1,1.53,13.9,1.65,15.7,0.833,18.5,0.396,2.91,0.43,13,1.48,14.6,0.196,2.37,–,–,–
Cc1nnn[n-]1.N.N.N.N.N.[Cl-].[Co+3],> 100,> 100,> 100,> 100,> 100,> 100,> 100,> 100,–,–,–,–,> 100,> 100,> 100,> 100,–,> 100,> 100

# Source: PubChem BioAssay (NCI)
